According to patent US20250243233A1, “BIOBASED SURFACTANTS” (ECOLE POLYTECHNIQUE FEDERALE DE LAUSANNE (EPFL), priority 2022, published 2025):
Each block holds one molecule with its values, some of them ahead of it.

Tests used:
Format in all cases: physicochemical
[1] = Interfacial tension measurements, water/oil pendant drop test (CMC from interfacial tension-concentration graph)
Protocol: To test the amphiphilic properties of each molecule, we measured the water/oil interfacial tension using pendant drop test. In a typical test, we inject the organic solution with surfactants slowly into the water phase with a bent needle with 1 mm diameter. The interfacial tension is calculated by the force balance with the buoyancy force. The critical micelle concentration (CMC) can be obtained by checking the critical point of interfacial tension-concentration graph. […] The CMC of MAX10 and MAX8 are around 2.5 mg/mL.

[2] = Accelerated aqueous decomposition test (boiling in water, HPLC); details: FIG. 16
Protocol: HPLC analyses for the accelerated aqueous decomposition of MAXn were performed using a HPX-87H Column (300 mm×7.8 mm; column temperature=60° C.) using pH 2 water as eluent (flow rate=0.6 ml·min^−1, Vinj=20 μL) with 1260 Refractive Index Detector (RID) (G1362A)
To gain insight into the degradation products of 1,2-O-dodecylidene-xylose (MAX12) in water, an accelerating aging test was performed by boiling it in water. Samples were taken at various time points and analyzed by HPLC (pH2 aqueous-phase chromatography, HPX-87H Column (300 mm×7.8 mm; 125-0140), 1260 Refractive Index Detector (RID) (G1362A), flow rate=0.6 ml·min^−1, Vinj=20 μL, column temperature=60° C.). […] And to our knowledge, fatty aldehydes can be oxidized into fatty acids catalyzed by the aldehyde dehydrogenase enzyme. Xylose and fatty acids are readily biodegradable.

[3] = Emulsion stability measurements (water/cyclohexane emulsions, bright-field microscope); details: water/oil emulsion (67% water and 33% cyclohexane) containing 1% surfactant, FIG. 2
Protocol: The emulsions were prepared by mixing 1 ml of water (with 1 mg/ml of Acian blue dye) and 2 ml cyclohexane containing 3,5-O-dodecylidene-xylose or 2-((dodecyloxy)methyl) tetrahydrofuran-3,4-diol) at a concentration of 0.1% and then mixed by vortex for 30 s.
Emulsions were characterized using a bright-field microscope (Leitz Ergolux) during the storage after preparation. […] Besides, a water/oil emulsion (67% water and 33% cyclohexane) containing 1% 3,5-O-dodecylidene-xylose was kept for about 1 year to observe its possible destablization.

[4] = quick emulsion test in ethyl acetate and water; details: non-miscible system of ethyl acetate and water, mixture neutralized until pH 7, FIG. 1a
Description: The mixture was neutralized until pH 7, and dissolved in a non-miscible system of ethyl acetate and water to do a quick emulsion test.

[5] = water/oil interfacial tension, FIG. 7

- critical micelle concentration (CMC) [1, 5]: around 2.5 mg/mL
Molecule: 3,5-O-octylidene-xylose [MAX8]

Molecule: 3,5-O-dodecylidene-xylose [MAX12]
- time to cleavage into xylose and fatty aldehyde [2]: 2 days
- state of emulsion after about 1 year storage [3]: most of the volume maintained the form of emulsion
- critical micelle concentration (CMC) [1, 5]: 0.35 mg/mL

- critical micelle concentration (CMC) [1, 5]: around 2.5 mg/mL
Molecule: 3,5-O-decylidene-xylose [MAX10]

- interfacial tension plateau value ([1]; cyclohexane/water): about 1.0 mN/m
- critical micelle concentration (CMC) ([1]; cyclohexane/water, FIG. 8): around 0.5 g/L
Molecule: CCCCCCCCCCCCOCC1OCC(O)C1O (centres unmarked) [2-((dodecyloxy)methyl)tetrahydrofuran-3,4-diol]

- phase separation / formation of emulsion [4]: phase separated
Molecule: CCCCCCCCO [1-octanol]
